# In patent US4068070A, “α-Cyanoamine compounds and a process for producing the same” (Fuji Chemical Industry Co., Ltd., priority 1974, dated 1978):
# Experiments:
# Assay type in all cases: in vivo, mongrel adult dogs
# aortic blood flow = test: Effects on aortic blood flow
# Description: (§1) All experiments were made on male and female thoractomized mongrel adult dogs weighing about 10 kg. under anesthesia with pentobarbital sodium. Compounds A, D, E and F were suspended in 0.2% CMC solution, Compound B dissolved in hydrochloric acid solution (pH 6), and Compound C and active placebo being dissolved in physiological saline solution. Animals were administered the drug intravenously on brachiuma with either test compound or active placebo.
# (§2) Arterial blood pressure was measured by pressure transducer (Nippon Koden MPU-0.5) connected with the cannula inserted from exposed carotid artery into aorta. Aortic blood flow was determined by means of electromagnetic flow meter (Nippon Koden MF-5) mounted at the origin of the aorta. Coronary sinus out flow and coronary sinus oxygen tension were assessed by means of electromagnetic flow meter (Nippon Koden MF-5) and P02 macro electrode (Beokmann Moder 160-C), respectively using Morawitz cannulization technique. Heart rate was measured by cardiotachometer (Nippon Koden RT-2) synchronized with systolic blood pressure of aorta.
# heart rate = test: Effects on heart rate
# Description: as §1, §2
# [1] = tested on: arterial mean blood pressure; test: Effects on arterial mean blood pressure
# Description: as §1, §2
# coronary sinus out flow = test: Effects on coronary sinus out flow
# Description: as §1, §2
# [2] = tested on: coronary sinus oxygen tension; test: Effects on coronary sinus oxygen tension
# Description: as §1, §2
structure (smiles),measurement,setting,value
COc1ccc(C(C#N)N2CCCN(CC=Cc3ccccc3)CC2)cc1OC (centres unmarked) [Compound E],"Changes (%) of basal values, aortic blood flow","aortic blood flow; 2.0 mg/kg i.v., 1 min",+3.6%
same,"Changes (%) of basal values, aortic blood flow","aortic blood flow; 2.0 mg/kg i.v., 5 min",+0.8%
same,"Changes (%) of basal values, aortic blood flow","aortic blood flow; 2.0 mg/kg i.v., 10 min",0%
same,"Changes (%) of basal values, aortic blood flow","aortic blood flow; 2.0 mg/kg i.v., 20 min",0%
same,"Changes (%) of basal values, aortic blood flow","aortic blood flow; 2.0 mg/kg i.v., 30 min",0%
same,"Changes (%) of basal values, aortic blood flow","aortic blood flow; 2.0 mg/kg i.v., 40 min",0%
same,"Changes (%) of basal values, aortic blood flow","aortic blood flow; 2.0 mg/kg i.v., imm.",+9.9%
same,"Changes (%) of basal values, aortic blood flow","aortic blood flow; 6.0 mg/kg i.v., 1 min",+5.8%
same,"Changes (%) of basal values, aortic blood flow","aortic blood flow; 6.0 mg/kg i.v., 5 min",0%
same,"Changes (%) of basal values, aortic blood flow","aortic blood flow; 6.0 mg/kg i.v., 10 min",-3.7%
same,"Changes (%) of basal values, aortic blood flow","aortic blood flow; 6.0 mg/kg i.v., 20 min",-2.8%
same,"Changes (%) of basal values, aortic blood flow","aortic blood flow; 6.0 mg/kg i.v., 30 min",-1.5%
same,"Changes (%) of basal values, aortic blood flow","aortic blood flow; 6.0 mg/kg i.v., 40 min",-0.3%
same,"Changes (%) of basal values, aortic blood flow","aortic blood flow; 6.0 mg/kg i.v., imm.",+11.7%
same,"Changes (%) of basal values, aortic blood flow","aortic blood flow; 20.0 mg/kg i.v., 1 min",+7.6%
same,"Changes (%) of basal values, aortic blood flow","aortic blood flow; 20.0 mg/kg i.v., 5 min",-4.8%
same,"Changes (%) of basal values, aortic blood flow","aortic blood flow; 20.0 mg/kg i.v., 10 min",-12.4%
same,"Changes (%) of basal values, aortic blood flow","aortic blood flow; 20.0 mg/kg i.v., 20 min",-10.5%
same,"Changes (%) of basal values, aortic blood flow","aortic blood flow; 20.0 mg/kg i.v., 30 min",-9.5%
same,"Changes (%) of basal values, aortic blood flow","aortic blood flow; 20.0 mg/kg i.v., 40 min",-7.6%
same,"Changes (%) of basal values, aortic blood flow","aortic blood flow; 20.0 mg/kg i.v., imm.",+16.3%
same,Effects on aortic blood flow (in words),"aortic blood flow; i.v., anesthetized dogs","an increase in blood flow immediately after administration, followed by a decrease in blood flow"
same,"Changes(%) of basal values, heart rate","heart rate; 2.0 mg/kg i.v., 1 min",-0.2%
same,"Changes(%) of basal values, heart rate","heart rate; 2.0 mg/kg i.v., 5 min",-0.6%
same,"Changes(%) of basal values, heart rate","heart rate; 2.0 mg/kg i.v., 10 min",-1.3%
same,"Changes(%) of basal values, heart rate","heart rate; 2.0 mg/kg i.v., 20 min",0%
same,"Changes(%) of basal values, heart rate","heart rate; 2.0 mg/kg i.v., 30 min",0%
same,"Changes(%) of basal values, heart rate","heart rate; 2.0 mg/kg i.v., 40 min",0%
same,"Changes(%) of basal values, heart rate","heart rate; 2.0 mg/kg i.v., imm.",-2.9%
same,"Changes(%) of basal values, heart rate","heart rate; 6.0 mg/kg i.v., 1 min",-0.9%
same,"Changes(%) of basal values, heart rate","heart rate; 6.0 mg/kg i.v., 5 min",-3.7%
same,"Changes(%) of basal values, heart rate","heart rate; 6.0 mg/kg i.v., 10 min",-1.4%
same,"Changes(%) of basal values, heart rate","heart rate; 6.0 mg/kg i.v., 20 min",-1.3%
same,"Changes(%) of basal values, heart rate","heart rate; 6.0 mg/kg i.v., 30 min",-0.8%
same,"Changes(%) of basal values, heart rate","heart rate; 6.0 mg/kg i.v., 40 min",-0.6%
same,"Changes(%) of basal values, heart rate","heart rate; 6.0 mg/kg i.v., imm.",-9.1%
same,"Changes(%) of basal values, heart rate","heart rate; 20.0 mg/kg i.v., 1 min",-1.0%
same,"Changes(%) of basal values, heart rate","heart rate; 20.0 mg/kg i.v., 5 min",-7.8%
same,"Changes(%) of basal values, heart rate","heart rate; 20.0 mg/kg i.v., 10 min",-9.1%
same,"Changes(%) of basal values, heart rate","heart rate; 20.0 mg/kg i.v., 20 min",-7.9%
same,"Changes(%) of basal values, heart rate","heart rate; 20.0 mg/kg i.v., 30 min",-7.1%
same,"Changes(%) of basal values, heart rate","heart rate; 20.0 mg/kg i.v., 40 min",-6.6%
same,"Changes(%) of basal values, heart rate","heart rate; 20.0 mg/kg i.v., imm.",-16.8%
same,Effects on heart rate (in words),"heart rate; i.v., anesthetized dogs",a slight negative chronotropic effect
same,"Changes (%) of basal values, arterial mean blood pressure","[1]; 2.0 mg/kg i.v., 1 min",-1.5%
same,"Changes (%) of basal values, arterial mean blood pressure","[1]; 2.0 mg/kg i.v., 5 min",-3.3%
same,"Changes (%) of basal values, arterial mean blood pressure","[1]; 2.0 mg/kg i.v., 10 min",-2.1%
same,"Changes (%) of basal values, arterial mean blood pressure","[1]; 2.0 mg/kg i.v., 20 min",-1.0%
same,"Changes (%) of basal values, arterial mean blood pressure","[1]; 2.0 mg/kg i.v., 30 min",-0.3%
same,"Changes (%) of basal values, arterial mean blood pressure","[1]; 2.0 mg/kg i.v., 40 min",0%
same,"Changes (%) of basal values, arterial mean blood pressure","[1]; 2.0 mg/kg i.v., imm.",-7.4%
same,"Changes (%) of basal values, arterial mean blood pressure","[1]; 6.0 mg/kg i.v., 1 min",-3.8%
same,"Changes (%) of basal values, arterial mean blood pressure","[1]; 6.0 mg/kg i.v., 5 min",-6.0%
same,"Changes (%) of basal values, arterial mean blood pressure","[1]; 6.0 mg/kg i.v., 10 min",-10.9%
same,"Changes (%) of basal values, arterial mean blood pressure","[1]; 6.0 mg/kg i.v., 20 min",-8.2%
same,"Changes (%) of basal values, arterial mean blood pressure","[1]; 6.0 mg/kg i.v., 30 min",-3.8%
same,"Changes (%) of basal values, arterial mean blood pressure","[1]; 6.0 mg/kg i.v., 40 min",-2.8%
same,"Changes (%) of basal values, arterial mean blood pressure","[1]; 6.0 mg/kg i.v., imm.",-22.6%
same,"Changes (%) of basal values, arterial mean blood pressure","[1]; 20.0 mg/kg i.v., 1 min",-8.3%
same,"Changes (%) of basal values, arterial mean blood pressure","[1]; 20.0 mg/kg i.v., 5 min",-15.9%
same,"Changes (%) of basal values, arterial mean blood pressure","[1]; 20.0 mg/kg i.v., 10 min",-21.2%
same,"Changes (%) of basal values, arterial mean blood pressure","[1]; 20.0 mg/kg i.v., 20 min",-19.9%
same,"Changes (%) of basal values, arterial mean blood pressure","[1]; 20.0 mg/kg i.v., 30 min",-16.2%
same,"Changes (%) of basal values, arterial mean blood pressure","[1]; 20.0 mg/kg i.v., 40 min",-11.4%
same,"Changes (%) of basal values, arterial mean blood pressure","[1]; 20.0 mg/kg i.v., imm.",-29.9%
same,Effects on arterial mean blood pressure (in words),"[1]; i.v., anesthetized dogs",hypotensive effects being proportioned to their doses which were of long duration
same,"Changes(%) of basal values, coronary sinus out flow","coronary sinus out flow; 2.0 mg/kg i.v., 1 min",+2.5%
same,"Changes(%) of basal values, coronary sinus out flow","coronary sinus out flow; 2.0 mg/kg i.v., 5 min",-0.8%
same,"Changes(%) of basal values, coronary sinus out flow","coronary sinus out flow; 2.0 mg/kg i.v., 10 min",-1.0%
same,"Changes(%) of basal values, coronary sinus out flow","coronary sinus out flow; 2.0 mg/kg i.v., 20 min",-0.3%
same,"Changes(%) of basal values, coronary sinus out flow","coronary sinus out flow; 2.0 mg/kg i.v., 30 min",0%
same,"Changes(%) of basal values, coronary sinus out flow","coronary sinus out flow; 2.0 mg/kg i.v., 40 min",0%
same,"Changes(%) of basal values, coronary sinus out flow","coronary sinus out flow; 2.0 mg/kg i.v., imm.",+7.8%
same,"Changes(%) of basal values, coronary sinus out flow","coronary sinus out flow; 6.0 mg/kg i.v., 1 min",+24.3%
same,"Changes(%) of basal values, coronary sinus out flow","coronary sinus out flow; 6.0 mg/kg i.v., 5 min",+4.2%
same,"Changes(%) of basal values, coronary sinus out flow","coronary sinus out flow; 6.0 mg/kg i.v., 10 min",+3.3%
same,"Changes(%) of basal values, coronary sinus out flow","coronary sinus out flow; 6.0 mg/kg i.v., 20 min",+2.3%
same,"Changes(%) of basal values, coronary sinus out flow","coronary sinus out flow; 6.0 mg/kg i.v., 30 min",+1.5%
same,"Changes(%) of basal values, coronary sinus out flow","coronary sinus out flow; 6.0 mg/kg i.v., 40 min",+1.1%
same,"Changes(%) of basal values, coronary sinus out flow","coronary sinus out flow; 6.0 mg/kg i.v., imm.",+51.3%
same,"Changes(%) of basal values, coronary sinus out flow","coronary sinus out flow; 20.0 mg/kg i.v., 1 min",+64.3%
same,"Changes(%) of basal values, coronary sinus out flow","coronary sinus out flow; 20.0 mg/kg i.v., 5 min",+14.7%
same,"Changes(%) of basal values, coronary sinus out flow","coronary sinus out flow; 20.0 mg/kg i.v., 10 min",+15.8%
same,"Changes(%) of basal values, coronary sinus out flow","coronary sinus out flow; 20.0 mg/kg i.v., 20 min",+15.4%
same,"Changes(%) of basal values, coronary sinus out flow","coronary sinus out flow; 20.0 mg/kg i.v., 30 min",+12.1%
same,"Changes(%) of basal values, coronary sinus out flow","coronary sinus out flow; 20.0 mg/kg i.v., 40 min",+9.8%
same,"Changes(%) of basal values, coronary sinus out flow","coronary sinus out flow; 20.0 mg/kg i.v., imm.",+90.3%
same,Effects on coronary sinus out flow (in words),"coronary sinus out flow; i.v., anesthetized dogs","a marked increasing effect on coronary sinus out flow, which was proportioned to doses thereof and of long duration"
same,"Changes(%) of basal values, coronary sinus oxygen tension","[2]; 2.0 mg/kg i.v., 1 min",+4.1%
same,"Changes(%) of basal values, coronary sinus oxygen tension","[2]; 2.0 mg/kg i.v., 5 min",+1.1%
same,"Changes(%) of basal values, coronary sinus oxygen tension","[2]; 2.0 mg/kg i.v., 10 min",+0.5%
same,"Changes(%) of basal values, coronary sinus oxygen tension","[2]; 2.0 mg/kg i.v., 20 min",0%
same,"Changes(%) of basal values, coronary sinus oxygen tension","[2]; 2.0 mg/kg i.v., 30 min",0%
same,"Changes(%) of basal values, coronary sinus oxygen tension","[2]; 2.0 mg/kg i.v., 40 min",0%
same,"Changes(%) of basal values, coronary sinus oxygen tension","[2]; 2.0 mg/kg i.v., imm.",+8.3%
same,"Changes(%) of basal values, coronary sinus oxygen tension","[2]; 6.0 mg/kg i.v., 1 min",+27.0%
same,"Changes(%) of basal values, coronary sinus oxygen tension","[2]; 6.0 mg/kg i.v., 5 min",+8.0%
same,"Changes(%) of basal values, coronary sinus oxygen tension","[2]; 6.0 mg/kg i.v., 10 min",+8.5%
same,"Changes(%) of basal values, coronary sinus oxygen tension","[2]; 6.0 mg/kg i.v., 20 min",+4.2%
same,"Changes(%) of basal values, coronary sinus oxygen tension","[2]; 6.0 mg/kg i.v., 30 min",+2.5%
same,"Changes(%) of basal values, coronary sinus oxygen tension","[2]; 6.0 mg/kg i.v., 40 min",+0.8%
same,"Changes(%) of basal values, coronary sinus oxygen tension","[2]; 6.0 mg/kg i.v., imm.",+29.7%
same,"Changes(%) of basal values, coronary sinus oxygen tension","[2]; 20.0 mg/kg i.v., 1 min",+39.2%
same,"Changes(%) of basal values, coronary sinus oxygen tension","[2]; 20.0 mg/kg i.v., 5 min",+20.4%
same,"Changes(%) of basal values, coronary sinus oxygen tension","[2]; 20.0 mg/kg i.v., 10 min",+16.6%
same,"Changes(%) of basal values, coronary sinus oxygen tension","[2]; 20.0 mg/kg i.v., 20 min",+20.8%
same,"Changes(%) of basal values, coronary sinus oxygen tension","[2]; 20.0 mg/kg i.v., 30 min",+20.2%
same,"Changes(%) of basal values, coronary sinus oxygen tension","[2]; 20.0 mg/kg i.v., 40 min",+19.8%
same,"Changes(%) of basal values, coronary sinus oxygen tension","[2]; 20.0 mg/kg i.v., imm.",+46.2%
same,Effects on coronary sinus oxygen tension (in words),"[2]; i.v., anesthetized dogs","a significant increase in coronary sinus oxygen tension, effect of which was of long duration"
